We go through 3 compounds from patent publication US20220218679A1, “NOVEL COMPOUNDS AND PHARMACEUTICAL COMPOSITIONS THEREOF FOR THE TREATMENT OF INFLAMMATORY DISORDERS” (Galapagos NV, priority 2019, published 2022).

One data set deals with T1, human IRAK-4 (Homo sapiens, UniProt Q9NWZ3).
T1 construct: purchased Carna Biosciences 09 145
T1 sequence (Q9NWZ3 1-460): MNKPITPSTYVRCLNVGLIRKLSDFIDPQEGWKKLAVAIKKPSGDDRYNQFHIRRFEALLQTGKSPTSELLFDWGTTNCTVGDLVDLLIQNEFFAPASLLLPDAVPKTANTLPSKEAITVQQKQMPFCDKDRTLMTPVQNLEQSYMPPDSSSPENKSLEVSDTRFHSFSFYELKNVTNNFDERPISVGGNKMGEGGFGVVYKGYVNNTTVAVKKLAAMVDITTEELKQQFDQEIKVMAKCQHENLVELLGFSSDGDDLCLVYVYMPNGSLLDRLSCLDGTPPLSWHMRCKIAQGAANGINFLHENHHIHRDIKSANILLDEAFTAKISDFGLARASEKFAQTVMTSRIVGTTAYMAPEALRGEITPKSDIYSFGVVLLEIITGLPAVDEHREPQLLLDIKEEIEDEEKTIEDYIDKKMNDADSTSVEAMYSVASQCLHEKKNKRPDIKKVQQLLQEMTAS
The data set is described as follows: Phosphorylation IC50 determination for human IRAK-4 (ADP-Glo kinase assay). It is filed as biochemical. The settings on record: RIP140 substrate, Km ATP, read-out: IRAK4 IC50. The protocol:
3.1. Phosphorylation IC50 Determination for Human IRAK-4
The phosphorylation of the substrate RIP140 (SEQ IDi1) by IRAK4 at Km ATP was detected with the ADP-Glo Kinase Assay (Promega, Cat #V9103), a luminescent kinase assay which measures the ADP formed from a kinase reaction. (Zegzouti et al., 2009) In a second step the kinase reaction is terminated and all the remaining ATP was depleted. In a final step the ADP was converted into ATP and this newly synthesized ATP was measured by using a luciferase/luciferin reaction with a luminescent reader. The luminescent signal positively correlated with kinase activity, in particular kinase inhibition giving a decrease of the luminescent signal.
For the semi-automated assay, the positive control (100% inhibition) was prepared by diluting 10 mM staurosporine stock mixture (20 μL) in water (3.8 mL) and DMSO (180 μL), thus resulting in a […] staurosporine solution at 1% DMSO (final concentration after further dilution in the kinase reaction).
For the automated assay, no pre-dilution of the 10 mM staurosporine stock was made. 10 mM staurosporine was spotted directly in the assay plate using acoustic dispensing and complemented with DMSO to result in a similar final concentration as mentioned above.
For the semi-automated assay, the negative control (0% inhibition) was prepared by mixing water (3.8 mL) and DMSO (200 μL) resulting in a final concentration of 1% DMSO after further dilution in the kinase reaction. For the automated assay no pre-dilution of DMSO was done. 100% DMSO was spotted directly on the assay plate.
The assay buffer solution was prepared at a concentration corresponding to 5 fold the final (most diluted) assay concentration by mixing a solution of 125 mM TRIS pH 7.5+0.05% Triton X-100+2.5 mM EGTA (5.27 mL) with 1M MgCl2 (72 μL), 1M DTT (57.6 μL), and 200 mM MnCl2 (360 μL).
For example, for the semi-automated method, the enzyme-substrate mixture was prepared by mixing water (3999 μL), assay buffer solution (1380 μL), 1 mM RIP140 (138 μL—SEQ ID1), and 200 ng/mL IRAK 4 (3.45 μL Carna Biosciences, 09 145).
For semi-automated method, the ATP mixture was prepared at a concentration corresponding to 2.5 fold the final (most diluted) assay concentration of the semi-automated method and 1.5 fold the final (most diluted) assay concentration of the automated method. For example, for the semi-automated method, the ATP mixture was prepared by mixing water (4126 μL), assay buffer solution (1380 μL), and 10 mM ATP (13.80 μL).
The assay was performed either in a semi-automated or fully automated manner. The assay volume and the incubation time of the ADP detection were different accordingly the method used.
3.1.3.1. Semi-Automated Assay
The compounds were prepared as a serial dilution of 10 point dose responses with 1/5 dilution steps in 100% DMSO starting from 2 mM highest concentration, diluted 1/20 in water. 1 μL was transferred dry to the assay plates.
On each assay plate 32 wells of each control (positive & negative) were added, followed by 2 μL enzyme-substrate mixture.
The reaction was started by adding 2 μL diluted ATP (final concentration Km ATP) on the assay plates. Plates were centrifuged for a few seconds at 1000 rpm followed by an incubation at r.t. for 120 min.
The reactions were stopped and the unconsumed ATP was depleted by adding 5 μL ADP-glo Reagent (Promega, Cat #V9103) to the reaction. The plates were quickly centrifuged at 1000 rpm and incubated at r.t. for 40 min corresponding to full ATP depletion.
The ADP was converted back to ATP and luciferase and luciferin were introduced to detect ATP by adding 10 μL kinase detection reagent (Promega, Cat #V9103) to the reaction. The plates were centrifuged for a few seconds at 1000 rpm and incubated at r.t. for a further 30 min.
Luminescent read out was performed on an Envision luminescent reader (Perkin Elmer). […]

Data set [1] relates to CL097 triggered IFNα release in human whole blood. As to the kind of experiment: Ex vivo human IFNα release inhibition (human whole blood assay). The data set is classed as cell-based. The settings on record: Homo sapiens, CL097 2 μg/mL, 3 h 30 min at 37° C. The source says:
(§1) 4.10.1. Ex Vivo Human IFNα and TNFα Release Inhibition (Human Whole Blood Assay)
(§2) The aim of the assay is to evaluate the activity of compounds of the invention on the activated TLR/IRAK-4 pathway in an ex vivo human whole blood setting. Toll-like receptors (TLRs) are pattern recognition receptors that recognize a wide variety of microbial molecules, called pathogen-associated molecular patterns (PAMPs). Human TLR7 and TLR8 recognize imidazoquinoline compounds (e.g., CL097—CAS n #1026249-18-2) and single stranded RNAs as their natural ligands. Activation of TLRs leads to the production of several cytokines (e.g., IFNα, TNFα, IL-8, IL-6) by the TLR agonist-treated cells, whereas IRAK4 leads to the production of IFNα. Cytokine release is used as readout in this assay and represents a measure for the level of inhibition of the TLR/IRAK-4 pathway by the tested compound. It should be noted that in the context of the complete organism, other sources for these cytokines exist that are not dependent on the TLR/IRAK-4 pathway, such as e.g., macrophages (upon activation of the Fcγ receptor (Yan et al., 2012)) or T cells (upon activation of the T cell receptor (Brehm et al., 2005)).
(§3) 4.10.1.1. Experimental Design
(§4) Blood was collected from healthy volunteers into lithium heparin tubes by venipuncture, then gently inverted several times to prevent clotting and incubated for at least 15 min at 37° C. on a rocking mixer shaker. Then, 100 μL of blood was dispensed into polypropylene 96-well microplate and pre-incubated in duplicate with 0.3% DMSO or test compound at different concentrations (from 30 to 0.01 μM, 3-fold dilutions to get 0.3% DMSO at the final) for 15 min at 37° C. After this pre-incubation, blood was triggered with CL097 (2 μg/mL from 1 mg/mL solution in water; InvivoGen, tlrl-c97) for 3 h 30 min at 37° C. Microtubes were centrifuged at 5000×g for 10 min at 4° C. and approximately 40 μL of plasma were collected into a polystyrene 96-well plate. Plasma could be analyzed freshly, within 30 min after triggering, or frozen at −80° C. Finally, the quantification of TNFα and IFNα were performed in the plasma using AlphaLISA Kit for TNFα and IFNα according to the manufacturer's instructions and read on the Ensight (PerkinElmer).
A standard curve was created by plotting on log-log the mean […] on the y-axis against the concentration on the x-axis and a 4-parameters logistic regression (4PL) was made through the points. For each blood sample, the IFNα concentrations of the samples were determined from the fit. Data were then expressed as a percentage of inhibition (PIN) for each replicate using the formula:
With mean IFNα with CL097=mean IFNα concentration of replicate samples triggered with CL097; IFNαsample1=IFNα concentration of sample 1; mean IFNα with vehicle=mean IFNα concentration of replicate samples treated with vehicle.
(§5) Curve fitting for pIC50 determination were generated using mean PIN±sem. Graphs and pIC50 calculations were derived using Prism 5.03 software (GraphPad).

For data set [2], the system named is CL097 triggered TNFα release in human whole blood. As to the kind of experiment: Ex vivo human TNFα release inhibition (human whole blood assay). It is filed as cell-based. The settings on record: Homo sapiens, CL097 2 μg/mL, 3 h 30 min at 37° C.
Description: as §1, §2, §3, §4
For each blood sample, the TNFα concentrations of the samples were determined from the fit. Data were then expressed a percentage of inhibition PIN for each replicate using the formula:
With mean TNFα with CL097=mean TNFα concentration of replicate samples triggered with CL097; TNFαsample1=TNFα concentration of sample 1; mean TNFα with vehicle=mean TNFα concentration of replicate samples treated with vehicle.
as §5

A short description of another data set: Thermodynamic solubility. It is filed as physicochemical. The settings on record: 37 °C, thermodynamic from solid. The source says:
4.2. Thermodynamic Solubility
Poor solubility, in particular poor thermodynamic solubility can limit the absorption of compounds from the gastrointestinal tract which in turn may reduce oral bioavailability.
Thermodynamic solubility investigates the solubility of a compound as a saturated solution in equilibrium, by opposition to kinetic solubility, which measures the solubility of a metastable solution where supersaturation may occur and provide over estimation of the actual solubility of the compound. (Klein, 2010)
4.2.2. Thermodynamic Solubility—Protocol 2
In a 8 mL glass vial, 1-2 mg of dry matter of compound were added and stirred with the suitable buffers (Fed State Simulated Intestine Fluid, FeSSIF, or Fasted State Simulated Intestine Fluid, FaSSIF, or Fasted State Simulated Gastric Fluid, FaSSGF, or phosphate buffer pH 7.4) for 24 h at r.t. (for the buffer pH 7.4) or 37° C. (for the GI fluids). The concentration of the mixture was 1 mg/mL.
A volume of 1000 μL were sampled, centrifuged for 10 min at 10 000 rpm and 500 μL of the supernatant were filtered on captiva plate. The samples were diluted in duplicates in DMSO (F100 and F10). Then, a final dilution (F100) in 80/20 H2O/MeCN containing the internal standard (warfarin) was used for LCMS-MS analysis.
A standard curve was made starting from a 40,000 ng/mL stock in DMSO, freshly prepared from dry matter. Then, successive concentrations at 15,000, 11,000, 6,000, 2,500, 1,000, 375, 150 and 75 ng/mL in DMSO were prepared.
Three quality control samples were made: one of 10,000, 1,500 and 200 ng/mL in DMSO, also starting from the DMSO working stock solution at 40,000 ng/mL.
The standard curve and quality controls were diluted a F100 in 80/20 H2O/MeCN (with internal standard) and analyzed on LC/MS-MS (API4000 or API5500).
The samples were analyzed on LC-MS with a flow rate of 0.6 mL/min. The mobile phase A was 0.1% formic acid in water and the mobile phase B was 0.1% formic acid in 90% MeCN and 10% of H2O. The sample was run under positive or negative ion spray on Pursuit C18—5 μm (2.0×20 mm) column, from Agilent.
The ratio analyte/internal standard peaks areas of the standard curve were plotted in a graph and a linear or polynomial of the second order equation was used to calculate the unknown concentrations of the test compound.
Solubility values were reported in μg/mL.

The term IC50 denotes the midpoint of a concentration-inhibition curve.

Like-named read-outs stand apart in the source and are kept apart here.

In the case of `COc1cn2nc(CCS(C)(=O)=O)cc2cc1NC(=O)c1cccn(C2CC2)c1=O` [Compound 6, 1-cyclopropyl-N-[6-methoxy-2-(2-methylsulfonylethyl)pyrazolo[1,5-a]pyridin-5-yl]-2-oxo-pyridine-3-carboxamide], the IC50 was in the range of 5 to 10 nM at human IRAK-4, 500 to 1000 nM in data set [1] and 0.1 to 500 nM in data set [2].
Turning to `NC(=O)c1cn2nc(C3CCOCC3)cc2cc1NC(=O)c1cccc(C(F)(F)F)n1` [Compound 11, 2-tetrahydropyran-4-yl-5-[[6-(trifluoromethyl)pyridine-2-carbonyl]amino]pyrazolo[1,5-a]pyridine-6-carboxamide], the IC50 on human IRAK-4 lay within 0.1 to 5 nM.
For the compound `CNC(=O)c1cn2nc(C3CCOCC3)cc2cc1NC(=O)c1cccc(C(F)(F)F)n1` [Compound 14, N-methyl-2-tetrahydropyran-4-yl-5-[[6-(trifluoromethyl)pyridine-2-carbonyl]amino]pyrazolo[1,5-a]pyridine-6-carboxamide], the IC50 at human IRAK-4 was in the range of 5 to 10 nM. Also, the solubility thermodynamic at 24 h is < 0.75 µg/mL in “Thermodynamic solubility” (Fasted State Simulated Gastric Fluid (FaSSGF), fassgf or other biorelevant, Fasted State Simulated Gastric Fluid, read-out: Tsol FaSSGF) and < 0.75 µg/mL in the data set “Thermodynamic solubility” (Fasted State Simulated Intestine Fluid (FaSSIF), fassif, Fasted State Simulated Intestine Fluid, read-out: Tsol FaSSIF).
